# Results as given in patent publication US5393743A, “Erythromycin derivatives” (Abbott Laboratories, priority 1993, dated 1995).
# Read-outs that look alike come from different tables or passages of the source.
# Experiments:
# [1] = system: Streptococcus pyogenes EES61; test: In vitro antibacterial activity, agar dilution MIC; type: cell-based
# Procedure: (§1) Representative compounds of the present invention were assayed in vitro for antibacterial activity as follows: Twelve petri dishes containing successive aqueous dilutions of the test compound mixed with 10 mL of sterilized Brain Heart Infusion (BHI) agar (Difco 0418-01-5) were prepared. Each plate was inoculated with 1:100 (or 1:10 for slow-growing strains, such as Micrococcus and Streptococcus) dilutions of up to 32 different microorganisms, using a Steers replicator block. The inoculated plates were incubated 35°-37° C. for 20 to 24 hours. In addition, a control plate, using BHI agar containing no test compound, was prepared and incubated at the beginning and end of each test.
# (§2) An additional plate containing a compound having known susceptibility patterns for the organisms being tested and belonging to the same antibiotic class as the test compound was also prepared and incubated as a further control, as well as to provide test-to-test comparability. Erythromycin A was used for this purpose.
# (§3) After incubation, each disk was read. The minimum inhibitory concentration (MIC) was defined as the lowest concentration of drug yielding no growth, a slight haze, or sparsely isolated colonies on the inoculum spot as compared to the growth control.
# Escherichia coli KNK 437 = test: In vitro antibacterial activity, agar dilution MIC; type: cell-based; settings: KNK437
# Procedure: as §1, §2, §3
# [2] = system: Staphylococcus aureus NCTC 10649; test: In vitro antibacterial activity, agar dilution MIC; type: cell-based; settings: NCTC10649
# Procedure: as §1, §2, §3
# [3] = system: Enterobacter aerogenes ATCC 13048; test: In vitro antibacterial activity, agar dilution MIC; type: cell-based; settings: Klebsiella aerogenes, ATCC13048
# Procedure: as §1, §2, §3
# [4] = system: Providencia stuartii CMX 640; test: In vitro antibacterial activity, agar dilution MIC; type: cell-based; settings: CMX640
# Procedure: as §1, §2, §3
# [5] = system: Enterococcus faecium ATCC 8043; test: In vitro antibacterial activity, agar dilution MIC; type: cell-based; settings: ATCC8043
# Procedure: as §1, §2, §3
# [6] = system: Pseudomonas aeruginosa A5007; test: In vitro antibacterial activity, agar dilution MIC; type: cell-based
# Procedure: as §1, §2, §3
# [7] = system: Klebsiella pneumoniae ATCC 8045; test: In vitro antibacterial activity, agar dilution MIC; type: cell-based; settings: ATCC8045
# Procedure: as §1, §2, §3
# Escherichia coli Juhl = test: In vitro antibacterial activity, agar dilution MIC; type: cell-based
# Procedure: as §1, §2, §3
# [8] = system: Staphylococcus aureus A5278; test: In vitro antibacterial activity, agar dilution MIC; type: cell-based; settings: Staphylococcus aureus, A5278
# Procedure: as §1, §2, §3
# [9] = system: Pseudomonas aeruginosa K799/WT; test: In vitro antibacterial activity, agar dilution MIC; type: cell-based
# Procedure: as §1, §2, §3
# Pseudomonas cepacia 2961 = test: In vitro antibacterial activity, agar dilution MIC; type: cell-based; settings: Burkholderia cepacia
# Procedure: as §1, §2, §3
# [10] = system: Staphylococcus aureus ATCC 6538P; test: In vitro antibacterial activity, agar dilution MIC; type: cell-based; settings: ATCC6538P
# Procedure: as §1, §2, §3
# [11] = system: Streptococcus pyogenes 930 const; test: In vitro antibacterial activity, agar dilution MIC; type: cell-based
# Procedure: as §1, §2, §3
# Micrococcus luteus 4698 = test: In vitro antibacterial activity, agar dilution MIC; type: cell-based
# Procedure: as §1, §2, §3
# Escherichia coli H560 = test: In vitro antibacterial activity, agar dilution MIC; type: cell-based
# Procedure: as §1, §2, §3
# [12] = system: Streptococcus bovis A5169; test: In vitro antibacterial activity, agar dilution MIC; type: cell-based; settings: Streptococcus equinus, A5169
# Procedure: as §1, §2, §3
# [13] = system: Staphylococcus aureus A5177; test: In vitro antibacterial activity, agar dilution MIC; type: cell-based
# Procedure: as §1, §2, §3
# [14] = system: Staphylococcus aureus 1775 Cipro R; test: In vitro antibacterial activity, agar dilution MIC; type: cell-based; settings: Staphylococcus aureus, 1775CIPROR
# Procedure: as §1, §2, §3
# [15] = system: Pseudomonas aeruginosa 2862; test: In vitro antibacterial activity, agar dilution MIC; type: cell-based
# Procedure: as §1, §2, §3
# [16] = system: Streptococcus pyogenes 2548 induc; test: In vitro antibacterial activity, agar dilution MIC; type: cell-based
# Procedure: as §1, §2, §3
# [17] = system: Pseudomonas aeruginosa 5263; test: In vitro antibacterial activity, agar dilution MIC; type: cell-based
# Procedure: as §1, §2, §3
# [18] = system: Staphylococcus epidermidis 3519; test: In vitro antibacterial activity, agar dilution MIC; type: cell-based
# Procedure: as §1, §2, §3
# Escherichia coli DC-2 = test: In vitro antibacterial activity, agar dilution MIC; type: cell-based; settings: DC2
# Procedure: as §1, §2, §3
# [19] = system: Staphylococcus aureus CMX 553; test: In vitro antibacterial activity, agar dilution MIC; type: cell-based; settings: CMX553
# Procedure: as §1, §2, §3
# [20] = system: Streptococcus agalactiae 508; test: In vitro antibacterial activity, agar dilution MIC; type: cell-based
# Procedure: as §1, §2, §3
# [21] = system: Acinetobacter calcoaceticus CMX 669; test: In vitro antibacterial activity, agar dilution MIC; type: cell-based; settings: Acinetobacter calcoaceticus, CMX669
# Procedure: as §1, §2, §3
# [22] = system: Staphylococcus aureus CMX 642a; test: In vitro antibacterial activity, agar dilution MIC; type: cell-based; settings: CMX642A
# Procedure: as §1, §2, §3
# [23] = system: Pseudomonas aeruginosa BMH10; test: In vitro antibacterial activity, agar dilution MIC; type: cell-based
# Procedure: as §1, §2, §3
# [24] = system: Pseudomonas aeruginosa K799/61; test: In vitro antibacterial activity, agar dilution MIC; type: cell-based; settings: BHI agar, 35°-37° C., 20 to 24 hours, read-out: MIC
# Escherichia coli SS = test: microbe, parasite or virus in culture; settings: Escherichia coli
# Procedure: as §1, §2, §3
# [25] = system: Micrococcus luteus ATCC 9341; test: microbe, parasite or virus in culture; settings: Micrococcus luteus, ATCC9341
# Procedure: as §1, §2, §3
compound,measurement,setting,value
"CC[C@H]1OC(=O)[C@H](C)[C@@H](O[C@H]2C[C@](C)(F)[C@@H](OC)[C@H](C)O2)[C@H](C)[C@@H](O[C@@H]2O[C@H](C)C[C@H](N(C)C)[C@H]2O)[C@@]2(C)CC(C)=C(O2)[C@H](C)[C@H]2OC(=O)O[C@@]21C [Example 17, (3""S)-8,9-Anhydro-11-O,12-O-carbonyl-3""-fluoro-3""-desmethoxy-4""-O-methylerythromycin A-6,9-hemiketal]",MIC,"[1]; Streptococcus pyogenes EES61, BHI agar, 35°-37° C., 20 to 24 hours, read-out: MIC",0.2 mg/L
same,MIC,"Escherichia coli KNK 437; Escherichia coli KNK 437, BHI agar, 35°-37° C., 20 to 24 hours, read-out: MIC",> 100 mg/L
same,MIC,"[2]; Staphylococcus aureus NCTC 10649, BHI agar, 35°-37° C., 20 to 24 hours, read-out: MIC",1.56 mg/L
same,MIC,"[3]; Enterobacter aerogenes ATCC 13048, BHI agar, 35°-37° C., 20 to 24 hours, read-out: MIC",> 100 mg/L
same,MIC,"[4]; Providencia stuartii CMX 640, BHI agar, 35°-37° C., 20 to 24 hours, read-out: MIC",> 100 mg/L
same,MIC,"[5]; Enterococcus faecium ATCC 8043, BHI agar, 35°-37° C., 20 to 24 hours, read-out: MIC",0.39 mg/L
same,MIC,"[6]; Pseudomonas aeruginosa A5007, BHI agar, 35°-37° C., 20 to 24 hours, read-out: MIC",> 100 mg/L
same,MIC,"[7]; Klebsiella pneumoniae ATCC 8045, BHI agar, 35°-37° C., 20 to 24 hours, read-out: MIC",> 100 mg/L
same,MIC,"Escherichia coli Juhl; Escherichia coli Juhl, BHI agar, 35°-37° C., 20 to 24 hours, read-out: MIC",> 100 mg/L
same,MIC,[8],25 mg/L
same,MIC,"[9]; Pseudomonas aeruginosa K799/WT, BHI agar, 35°-37° C., 20 to 24 hours, read-out: MIC",> 100 mg/L
same,MIC,"Pseudomonas cepacia 2961; Pseudomonas cepacia 2961, BHI agar, 35°-37° C., 20 to 24 hours, read-out: MIC",> 100 mg/L
same,MIC,"[10]; Staphylococcus aureus ATCC 6538P, BHI agar, 35°-37° C., 20 to 24 hours, read-out: MIC",1.56 mg/L
same,MIC,"[11]; Streptococcus pyogenes 930 const, BHI agar, 35°-37° C., 20 to 24 hours, read-out: MIC",12.5 mg/L
same,MIC,"Micrococcus luteus 4698; Micrococcus luteus 4698, BHI agar, 35°-37° C., 20 to 24 hours, read-out: MIC",1.56 mg/L
same,MIC,"Escherichia coli H560; Escherichia coli H560, BHI agar, 35°-37° C., 20 to 24 hours, read-out: MIC",> 100 mg/L
same,MIC,[12],0.1 mg/L
same,MIC,"[13]; Staphylococcus aureus A5177, BHI agar, 35°-37° C., 20 to 24 hours, read-out: MIC",12.5 mg/L
same,MIC,[14],25 mg/L
same,MIC,"[15]; Pseudomonas aeruginosa 2862, BHI agar, 35°-37° C., 20 to 24 hours, read-out: MIC",> 100 mg/L
same,MIC,"[16]; Streptococcus pyogenes 2548 induc, BHI agar, 35°-37° C., 20 to 24 hours, read-out: MIC",1.56 mg/L
same,MIC,"[17]; Pseudomonas aeruginosa 5263, BHI agar, 35°-37° C., 20 to 24 hours, read-out: MIC",> 100 mg/L
same,MIC,"[18]; Staphylococcus epidermidis 3519, BHI agar, 35°-37° C., 20 to 24 hours, read-out: MIC",1.56 mg/L
same,MIC,"Escherichia coli DC-2; Escherichia coli DC-2, BHI agar, 35°-37° C., 20 to 24 hours, read-out: MIC",> 100 mg/L
same,MIC,"[19]; Staphylococcus aureus CMX 553, BHI agar, 35°-37° C., 20 to 24 hours, read-out: MIC",1.56 mg/L
same,MIC,"[20]; Streptococcus agalactiae 508, BHI agar, 35°-37° C., 20 to 24 hours, read-out: MIC",0.2 mg/L
same,MIC,[21],25 mg/L
same,MIC,"[22]; Staphylococcus aureus CMX 642a, BHI agar, 35°-37° C., 20 to 24 hours, read-out: MIC",1.56 mg/L
same,MIC,"[23]; Pseudomonas aeruginosa BMH10, BHI agar, 35°-37° C., 20 to 24 hours, read-out: MIC",> 100 mg/L
same,MIC,[24],50 mg/L
same,MIC,Escherichia coli SS,3.1 mg/L
same,MIC,[25],0.1 mg/L
"CC[C@H]1OC(=O)[C@H](C)[C@@H](O[C@H]2C[C@@](C)(OC)[C@@H](O)[C@H](C)O2)[C@H](C)[C@@H](O[C@@H]2O[C@H](C)C[C@H](N(C)C)[C@H]2O)[C@](C)(O)C[C@@H](C)C(=O)[C@H](C)[C@@H](O)[C@]1(C)O [CONTROL, Erythromycin A, reference compound]",MIC,"[1]; Streptococcus pyogenes, EES61",0.05 mg/L
same,MIC,Escherichia coli KNK 437; Escherichia coli,50 mg/L
same,MIC,[2]; Staphylococcus aureus,0.2 mg/L
same,MIC,[3],100 mg/L
same,MIC,[4]; Providencia stuartii,> 100 mg/L
same,MIC,[5]; Enterococcus faecium,0.1 mg/L
same,MIC,"[6]; Pseudomonas aeruginosa, A5007",> 100 mg/L
same,MIC,[7]; Klebsiella pneumoniae,50 mg/L
same,MIC,Escherichia coli Juhl; Escherichia coli,50 mg/L
same,MIC,[8],> 100 mg/L
same,MIC,"[9]; Pseudomonas aeruginosa, K799/WT",> 100 mg/L
same,MIC,Pseudomonas cepacia 2961; 2961,> 100 mg/L
same,MIC,[10]; Staphylococcus aureus,0.2 mg/L
same,MIC,"[11]; Streptococcus pyogenes, 930CONST",> 100 mg/L
same,MIC,"Micrococcus luteus 4698; Micrococcus luteus, 4698",0.39 mg/L
same,MIC,"Escherichia coli H560; Escherichia coli, H560",50 mg/L
same,MIC,[12],0.05 mg/L
same,MIC,"[13]; Staphylococcus aureus, A5177",1.56 mg/L
same,MIC,[14],> 100 mg/L
same,MIC,"[15]; Pseudomonas aeruginosa, 2862",> 100 mg/L
same,MIC,"[16]; Streptococcus pyogenes, 2548INDUC",6.2 mg/L
same,MIC,"[17]; Pseudomonas aeruginosa, 5263",> 100 mg/L
same,MIC,"[18]; Staphylococcus epidermidis, 3519",0.2 mg/L
same,MIC,Escherichia coli DC-2; Escherichia coli,100 mg/L
same,MIC,[19]; Staphylococcus aureus,0.2 mg/L
same,MIC,"[20]; Streptococcus agalactiae, 508",0.05 mg/L
same,MIC,[21],1.56 mg/L
same,MIC,[22]; Staphylococcus aureus,0.2 mg/L
same,MIC,"[23]; Pseudomonas aeruginosa, BMH10",100 mg/L
same,MIC,[24],3.1 mg/L
same,MIC,Escherichia coli SS,0.39 mg/L
same,MIC,[25],0.05 mg/L
